# From patent US20050054531A1, “N-(phosphonomethyl) glycine (glyphosate) salt, a preparation process thereof, a concentrate composition and a phytotoxic formulation comprising it, and a method to combat weeds in a crop with a formulation thereto” (priority 2003, published 2005)
# Entries after “also recorded” stand apart in the source; their conditions may differ.
# Columns and labels:
# [1] = stated in the formulation process; cited from earlier work
# Sunchillo (White aster) = experiment: Weed control in apple culture (Example 5): Sunchillo; assay type: in vivo, Wedelia glauca; conditions: 4 l/ha (1,440 g/ha 100% acid)
# Method: (§1) Observations: Only one dose of each product was tested in three repetitions, on areas of 2 m×8 m=16 m^2.
# Bermuda grass [2] = experiment: Weed control in apple culture (Example 5): Bermuda grass; assay type: in vivo, Cynodon dactylon; conditions: 4 l/ha (1,440 g/ha 100% acid)
# Method: as §1
# Bermuda grass [3] = experiment: Field observations on activity rate: control of Bermuda grass (Example 3); assay type: in vivo, Cynodon dactylon; parameters: key: beginning of the effect (BE); death of the plant (DP); without symptoms (WS); conditions: visual, 5,000 cm^3/ha (SQUADRON 24% 10,000)
# Method: (§2) Products were applied on a plot with maize stubble, preparing it for sowing wheat, where most abundant weeds were Aleppo grass (Sorghum halepense), water grass, jungle rice (Echinochloa crusgalli, Echinochloa colonum), and Bermuda grass (Cynodon dactylon).
# (§3) The assessment was performed visually on 3, 4, 5, 8, and 10 days after application for jungle rice, and Aleppo grass, and 4,7,10, and 14 days for Bermuda grass, where the obtained effects were recorded and identified as follows: beginning of the effect (BE), death of the plant (DP), and without symptoms (WS).
# Apple, Red Delicious = experiment: Phytotoxicity to the fruit tree (Example 5); assay type: in vivo; conditions: apple culture; 4 l/ha
# Method: Variety: Hybrid. Red Delicious.
# Phenologic status: with fruits of 2 cm diameter.
# as §1
# [4] = system: jungle rice and Aleppo grass; experiment: Field observations on activity rate: control of jungle rice and Aleppo grass (Example 3); assay type: in vivo; parameters: key: beginning of the effect (BE); death of the plant (DP); without symptoms (WS); conditions: visual, 5,000 cm^3/ha (SQUADRON 24% 10,000)
# Method: as §2, §3
# [5] = system: Bermuda grass and Nutgrass; experiment: Control of soy weeds (Example 6): Bermuda grass and Nutgrass; assay type: in vivo, Cynodon dactylon, Cyperus rotundus
# Source text: (§4) OBJECTIVE: The subject of the present assay comprises the assessment of different Glyphosate formulations on annual and perennial weeds in a resistant soy crop.
# (§5) Crop data were as follows: • Species: Soya • Variety: A-6443 • See-planting time: Second. • Preceding crop: Wheat • Density of seeds planted: 33 grains/m^2 • Density of grown plants: 28 pl/m^2 • Space between furrows: 0.52 m. • Culture system: Direct seed-planting. • Phenologic status on application: R-4/5
# (§6) Random blocks design was used, with four repetitions per treatment. The size of the parcels were: 4 m wide per 15 m long (60 m^2), totaling 240 m^2 per treatment.
# (§7) The product was applied with a carbon dioxide (CO2) hand backpack, provided with four tips separated by 0.50 m each, with a plain fan-type 110 O2 pastille. Applied volume was of 110 1/ha, at a pressure of 45 lb/cm^2
# (§8) The assessments were carried out visually by comparison with control non-applied parcels, and at 5, 10, 15, and 25 days after the application date en each case, where the intervals between each application from the beginning of the treatment were 5, 5, and 10 days, respectively.
# (§9) Variance analysis (ANOVA) and Duncan Test were performed with the results obtained, in order to detect mean differences.
# [6] = system: Aleppo grass, Bermuda grass, Blite, Wild buckwheat, Nutgrass; experiment: Field comparison of salt, trunk mixture and Rondo on renovation ground prior to cane plantation (Example 4); assay type: in vivo; conditions: scale (1) out of control to (10) excellent control
# Source text: APPLICATION: On renovation ground
# TYPE OF TREATMENT: TOTAL (PRIOR TO CANE PLANTATION)
# EXPERIMENTAL DESIGN: RANDOMIZED BLOCKS
# VOLUME PER HECTARE: 120 liters
# [7] = system: Blite, Pigweed, and Aleppo grass; experiment: Control of soy weeds (Example 6): Blite, Pigweed, and Aleppo grass; assay type: in vivo, Amaranthus quitensis, Chenopodium album, Sorghum halepense
# Source text: as §4, §5, §6, §7, §8, §9
# Aleppo grass = experiment: Weed control in apple culture (Example 5): Aleppo grass; assay type: in vivo, Sorghum halepensis; conditions: 4 l/ha (1,440 g/ha 100% acid)
# Method: as §1
# Soya A-6443 = experiment: Phytotoxicity on the soy crop (Example 6); assay type: in vivo; conditions: 2,000 and 3,000 cm^2/ha; soy at R-4/5
# Source text: as §4, §5, §7
# [8] = Glyphosate triazolamine salt 2,000 / Rondo 2,500 cm^2/ha
# [9] = Glyphosate triazolamine salt 3,000 / Rondo 5,000 cm^2/ha
compound,measurement,setting,value
"O=C(O)CNCP(=O)(O)O [Glyphosate, N-(phosphonomethyl)-glycine]",solubility in water (general statement),[1],practically non-soluble in water
"1H-1,2,4-triazole-3-yl-amine N-(phosphonomethyl)-glycine salt [Glyphosate triazolamine salt]","COUNT, averages of blocks, C (Sunchillo)",Sunchillo (White aster); 38 days after application,75
same,"COUNT, averages of blocks, C (Sunchillo)",Sunchillo (White aster); 51 days after application,90
same,"COUNT, averages of blocks, C (Sunchillo)",Sunchillo (White aster); 99 days after application,98
same,"COUNT, averages of blocks, B (Bermuda grass)",Bermuda grass [2]; 38 days after application,70
same,"COUNT, averages of blocks, B (Bermuda grass)",Bermuda grass [2]; 51 days after application,80
same,"COUNT, averages of blocks, B (Bermuda grass)",Bermuda grass [2]; 99 days after application,90
same,"Control of Bermuda grass, 4 DAYS",Bermuda grass [3]; 4 days after application,BE
same,"Control of Bermuda grass, 7 DAYS",Bermuda grass [3]; 7 days after application,BE
same,"Control of Bermuda grass, 10 DAYS",Bermuda grass [3]; 10 days after application,DP
same,"Control of Bermuda grass, 14 DAYS",Bermuda grass [3]; 14 days after application,DP
same,phytotoxicity to the fruit tree,"Apple, Red Delicious",No phytotoxicity to the fruit tree was observed
same,"Control of jungle rice and Aleppo grass, 3 DAYS",[4]; 3 days after application,BE
same,"Control of jungle rice and Aleppo grass, 4 DAYS",[4]; 4 days after application,BE
same,"Control of jungle rice and Aleppo grass, 5 DAYS",[4]; 5 days after application,DP
same,"Control of jungle rice and Aleppo grass, 8 DAYS",[4]; 8 days after application,DP
same,"Control of jungle rice and Aleppo grass, 10 DAYS",[4]; 10 days after application,DP
same,"Control % after 5 days, I",[5]; [8],60%
same,"Control % after 5 days, II",[5]; [8],50%
same,"Control % after 5 days, III",[5]; [8],50%
same,"Control % after 5 days, MEAN",[5]; [8],53.00%
same,"Control % after 10 days, I",[5]; [8],75%
same,"Control % after 10 days, II",[5]; [8],90%
same,"Control % after 10 days, III",[5]; [8],90%
same,"Control % after 10 days, MEAN",[5]; [8],85.00%
same,"Control % after 15 days, I",[5]; [8],85%
same,"Control % after 15 days, II",[5]; [8],90%
same,"Control % after 15 days, III",[5]; [8],90%
same,"Control % after 15 days, MEAN",[5]; [8],88.33%
same,"Control % after 25 days, I",[5]; [8],85%
same,"Control % after 25 days, II",[5]; [8],90%
same,"Control % after 25 days, III",[5]; [8],90%
same,"Control % after 25 days, MEAN",[5]; [8],88.33%
same,"Control %, 5 DAYS, data average by assessment date",[5]; [8],53.33 B %
same,"Control %, 10 DAYS, data average by assessment date",[5]; [8],85.00 BC %
same,"Control %, 15 DAYS, data average by assessment date",[5]; [8],88.33 B %
same,"Control %, 25 DAYS, data average by assessment date",[5]; [8],83.33 B %
same,"Control % after 5 days, I",[5]; [9],70%
same,"Control % after 5 days, II",[5]; [9],80%
same,"Control % after 5 days, III",[5]; [9],75%
same,"Control % after 5 days, MEAN",[5]; [9],75.00%
same,"Control % after 10 days, I",[5]; [9],100%
same,"Control % after 10 days, II",[5]; [9],100%
same,"Control % after 10 days, III",[5]; [9],100%
same,"Control % after 10 days, MEAN",[5]; [9],100.00%
same,"Control % after 15 days, I",[5]; [9],100%
same,"Control % after 15 days, II",[5]; [9],100%
same,"Control % after 15 days, III",[5]; [9],100%
same,"Control % after 15 days, MEAN",[5]; [9],100.00%
same,"Control % after 25 days, I",[5]; [9],100%
same,"Control % after 25 days, II",[5]; [9],100%
same,"Control % after 25 days, III",[5]; [9],100%
same,"Control % after 25 days, MEAN",[5]; [9],100.00%
same,"Control %, 5 DAYS, data average by assessment date",[5]; [9],75.00 A %
same,"Control %, 10 DAYS, data average by assessment date",[5]; [9],100.00 A %
same,"Control %, 15 DAYS, data average by assessment date",[5]; [9],100.00 A %
same,"Control %, 25 DAYS, data average by assessment date",[5]; [9],100.00 A %
same,final control over Bermuda grass and nutgrass,"[5]; higher dosage treatments: Glyphosate triazolamine salt 3,000 / Rondo 5,000 cm^2/ha",total control
same,"ASSAY OBSERVATIONS, control, 5 DAYS",[6]; 3 liters/ha,4
same,"ASSAY OBSERVATIONS, control, 15 DAYS",[6]; 3 liters/ha,7
same,"ASSAY OBSERVATIONS, control, 30 DAYS",[6]; 3 liters/ha,9
same,"ASSAY OBSERVATIONS, control, 5 DAYS",[6]; 4 liters/ha,4
same,"ASSAY OBSERVATIONS, control, 15 DAYS",[6]; 4 liters/ha,7
same,"ASSAY OBSERVATIONS, control, 30 DAYS",[6]; 4 liters/ha,10
same,"Control % after 5 DAYS, data average by assessment date",[7]; [8],58.33%
same,"Control % after 10 DAYS, data average by assessment date",[7]; [8],100.00%
same,"Control % after 15 DAYS, data average by assessment date",[7]; [8],100.00%
same,"Control % after 25 DAYS, data average by assessment date",[7]; [8],100.00%
same,"Control % after 5 days, I",[7]; [8],60%
same,"Control % after 5 days, II",[7]; [8],55%
same,"Control % after 5 days, III",[7]; [8],60%
same,"Control % after 5 days, MEAN",[7]; [8],58.33%
same,"Control % after 10 days, I",[7]; [8],100%
same,"Control % after 10 days, II",[7]; [8],100%
same,"Control % after 10 days, III",[7]; [8],100%
same,"Control % after 10 days, MEAN",[7]; [8],100.00%
same,"Control % after 15 days, I",[7]; [8],100%
same,"Control % after 15 days, II",[7]; [8],100%
same,"Control % after 15 days, III",[7]; [8],100%
same,"Control % after 15 days, MEAN",[7]; [8],100.00%
same,"Control % after 5 DAYS, data average by assessment date",[7]; [9],95.00%
same,"Control % after 10 DAYS, data average by assessment date",[7]; [9],100.00%
same,"Control % after 15 DAYS, data average by assessment date",[7]; [9],100.00%
same,"Control % after 25 DAYS, data average by assessment date",[7]; [9],100.00%
same,"Control % after 5 days, I",[7]; [9],100%
same,"Control % after 5 days, II",[7]; [9],90%
same,"Control % after 5 days, III",[7]; [9],95%
same,"Control % after 5 days, MEAN",[7]; [9],95.00%
same,"Control % after 10 days, I",[7]; [9],100%
same,"Control % after 10 days, II",[7]; [9],100%
same,"Control % after 10 days, III",[7]; [9],100%
same,"Control % after 10 days, MEAN",[7]; [9],100.00%
same,"Control % after 15 days, I",[7]; [9],100%
same,"Control % after 15 days, II",[7]; [9],100%
same,"Control % after 15 days, III",[7]; [9],100%
same,"Control % after 15 days, MEAN",[7]; [9],100.00%
same,"Control % after 10 days, I (TABLE NO. 4)",[7]; [8],100%
same,"Control % after 10 days, II (TABLE NO. 4)",[7]; [8],100%
same,"Control % after 10 days, III (TABLE NO. 4)",[7]; [8],100%
same,"Control % after 10 days, MEAN (TABLE NO. 4)",[7]; [8],100.00%
same,"Control % after 10 days, I (TABLE NO. 4)",[7]; [9],100%
same,"Control % after 10 days, II (TABLE NO. 4)",[7]; [9],100%
same,"Control % after 10 days, III (TABLE NO. 4)",[7]; [9],100%
same,"Control % after 10 days, MEAN (TABLE NO. 4)",[7]; [9],100.00%
same,"COUNT, averages of blocks, A (Aleppo grass)",Aleppo grass; 38 days after application,65
same,"COUNT, averages of blocks, A (Aleppo grass)",Aleppo grass; 51 days after application,85
same,"COUNT, averages of blocks, A (Aleppo grass)",Aleppo grass; 99 days after application,95
same,phytotoxicity on soy leaves / soy crops,Soya A-6443,showed phytotoxicity problems on soy leaves; also recorded: showed phytotoxicity over soy crops
"Nc1nc[nH]n1 [triazolamine, 1H-1,2,4-triazol-3-yl-amine]",solubility in water (general statement),[1],quite soluble
